Laboratory results from patent US11696907B2, “Wound healing composition” (WINERGEN TECHNOLOGIES INC., LTD., priority 2016, dated 2023).

Tests used:
[1] = test system: wounds and skin damage; test: Treatment effect of palmitic acid and behenic acid alone versus combined
[2] = test system: certain wounds; test: Effect of unsaturated fatty acids on wounds; design: species or system patients; details: in vivo

Row | SMILES | treatment effect of either acid alone [1] | inflammation to certain wounds, causing pain in some patients [2]
1 | CCCCCCCCCCCCCCCC(=O)O [palmitic acid] | less significant | 
2 | CCCCCCCCCCCCCCCCCCCCCC(=O)O [behenic acid] | less significant | 
3 | CCCCC/C=C\C/C=C\CCCCCCCC(=O)O [linoleic acid] |  | harmful inflammation
4 | CCCCC/C=C\C/C=C\C/C=C\C/C=C\CCCC(=O)O [arachidonic acid] |  | harmful inflammation
